Measured values published in US20230339854A1, “Negative Allosteric Modulation of GluN3-Containing N-Methyl-D-Aspartate Receptors” (Emory University, priority 2020, published 2023).
Several values for one entry are separate records, joined by “and”; a condition that tells them apart may be missing. Equal values may be shown once. Read-outs that look alike come from different tables or passages of the source.

Key:
[1] = target: T1, rat GluN1-4a^FA,TL/GluN3B receptors (Rattus norvegicus, UniProt Q8VHN2); test: Two-electrode voltage-clamp recordings of GluN1-4a^FA,TL/GluN3B receptors (Xenopus oocytes); format: cell-based
T1 construct: Human GluN3A (NP_597702.2) and rat GluN3B (NP_579842.2) were synthesized and subcloned into SP6 plasmids; expressed in transfected cells; host or cells: Xenopus laevis oocytes, cRNA injection
From the text: cDNA encoding human wild-type (WT) GluN1-1a (GenBank accession numbers NP_015566, hereafter GluN1) and rat GluN1-1a (NP_058706.1) were synthesized and subcloned into pGEMHE plasmid; some experiments used the rat splice variant GluN1-4a (NP_001257531.1). Human GluN3A (NP_597702.2) and rat GluN3B (NP_579842.2) were synthesized and subcloned into SP6 plasmids. For most experiments, human GluN1 was co-expressed with human GluN3A, except for mutagenesis experiments where rat GluN1 was co-expressed with human GluN3A. Rat GluN1-4a was always expressed with rat GluN3B.
Defolliculated Xenopus laevis oocytes (stage V-VI) were obtained from Ecocyte BioScience (Austin, Texas), or prepared from commercially available Xenopus ovaries (Xenopus 1, Dexter, MI) as previously described (Hansen, et al., Mol. Pharmacol., 2013). A Drummond Nanoject II (Broomall, PA) was used to inject oocytes with cRNAs encoding GluN1 and GluN3 at a 1:3 ratio in RNase-free water. The cRNA was diluted as needed to give responses with amplitudes ranging between 200-2000 nA (0.2-10 ng total cRNA). […] Recording electrodes were filled with 0.3-3.0 M KCl, and current responses were recorded at a holding potential of −40 mV. […]

GluA1-4 AMPA receptors = test: AMPA receptors in Xenopus oocytes (selectivity); format: cell-based, rat, human; details: 20 μM
[2] = In vivo pharmacokinetics and brain penetration in mice; set-up: species or system mouse
Experimental: EU1180-438 was dosed at 20 mg/kg intraperitoneal in seven freely-fed male C57BL/6 mice. EU1180-438 was formulated in 5% DMA, 10% PEG, 30% HPBCD, qs to volume w/water.
Plasma was sampled at seven points: pre-dose, 0.25, 0.5, 1, 2, 4, and 8 hours (n=3 per time point, 21 plasma samples per treatment group). […] Samples were analyzed via LC-MS/MS to quantify the amount of parent compound present in each sample.
EU1180-438 was tested in male C57BL/6 mice for brain penetrability. After a single intraperitoneal dose of 20 mg/kg the concentration of EU1180-438 in the plasma was measured. […] The concentration of EU1180-438 in the brain was also measured to determine if the compound can pass the blood-brain barrier. The compound was detected in the brain tissue up to 8 hours after dosage administration.

GluK2 kainate receptors = target: T2, GluK2 kainate receptors (Rattus norvegicus, UniProt P42260); test: Kainate receptors in Xenopus oocytes (selectivity); format: cell-based; details: 20 μM
T2 construct: expressed in transfected cells; host or cells: Xenopus laevis oocytes, cRNA injection
Experimental: (§1) The numbers of oocytes recorded are in parentheses.
(§2) The cDNA was linearized by restriction enzymes (Thermo Fisher Scientific, Lithuania), and the cRNA encoding the receptor subunits was synthesized from the linear template cDNA using the mMESSAGE mMACHINE kit (Invitrogen/Thermo Fisher Scientific, Lithuania). The α1β1δγ nAChR subunits were injected at a 1:1:1:1 ratio while α4 […] nAChR subunits were injected at a 1:1 ratio. The cDNAs encoding GABA and glycine subunits were provided by Dr. D. Weiss (University of Texas Health Science Center at San Antonio). The cDNAs encoding nAChR subunits were provided by Drs. R. Papke (University of Florida) and S. Heinemann (Salk Institute). The cDNA encoding the purinergic receptor was provided by Dr. R. Hume (University of Michigan).
(§3) Responses in the presence of EU1180-438 were expressed as a percent of control calculated as the average of the responses before and after EU1180-438 exposure. […]
(§4) Defolliculated Xenopus laevis oocytes (stage V-VI) were obtained from Ecocyte BioScience (Austin, Texas), or prepared from commercially available Xenopus ovaries (Xenopus 1, Dexter, MI) as previously described (Hansen, et al., Mol. Pharmacol., 2013). […] Recording electrodes were filled with 0.3-3.0 M KCl, and current responses were recorded at a holding potential of −40 mV.

GABA receptors = GABA receptors in Xenopus oocytes (selectivity); format: cell-based, rat; details: 20 μM
Experimental: as §1, §2, §3, §4

[3] = system: GluN1/GluN2 NMDA receptors (GluN2A, GluN2B, GluN2C, GluN2D); test: Recombinant GluN1/GluN2 NMDA receptors in Xenopus oocytes (selectivity); format: cell-based, rat
[4] = mice, 20 mg/kg intraperitoneal, 0.25 hour, 20 mg/kg
[5] = mice, 20 mg/kg intraperitoneal, 1 hour, 20 mg/kg
[6] = mice, 20 mg/kg intraperitoneal, 8 hour, 20 mg/kg

T1 sequence (Q8VHN2 25-1002, other chains not shown): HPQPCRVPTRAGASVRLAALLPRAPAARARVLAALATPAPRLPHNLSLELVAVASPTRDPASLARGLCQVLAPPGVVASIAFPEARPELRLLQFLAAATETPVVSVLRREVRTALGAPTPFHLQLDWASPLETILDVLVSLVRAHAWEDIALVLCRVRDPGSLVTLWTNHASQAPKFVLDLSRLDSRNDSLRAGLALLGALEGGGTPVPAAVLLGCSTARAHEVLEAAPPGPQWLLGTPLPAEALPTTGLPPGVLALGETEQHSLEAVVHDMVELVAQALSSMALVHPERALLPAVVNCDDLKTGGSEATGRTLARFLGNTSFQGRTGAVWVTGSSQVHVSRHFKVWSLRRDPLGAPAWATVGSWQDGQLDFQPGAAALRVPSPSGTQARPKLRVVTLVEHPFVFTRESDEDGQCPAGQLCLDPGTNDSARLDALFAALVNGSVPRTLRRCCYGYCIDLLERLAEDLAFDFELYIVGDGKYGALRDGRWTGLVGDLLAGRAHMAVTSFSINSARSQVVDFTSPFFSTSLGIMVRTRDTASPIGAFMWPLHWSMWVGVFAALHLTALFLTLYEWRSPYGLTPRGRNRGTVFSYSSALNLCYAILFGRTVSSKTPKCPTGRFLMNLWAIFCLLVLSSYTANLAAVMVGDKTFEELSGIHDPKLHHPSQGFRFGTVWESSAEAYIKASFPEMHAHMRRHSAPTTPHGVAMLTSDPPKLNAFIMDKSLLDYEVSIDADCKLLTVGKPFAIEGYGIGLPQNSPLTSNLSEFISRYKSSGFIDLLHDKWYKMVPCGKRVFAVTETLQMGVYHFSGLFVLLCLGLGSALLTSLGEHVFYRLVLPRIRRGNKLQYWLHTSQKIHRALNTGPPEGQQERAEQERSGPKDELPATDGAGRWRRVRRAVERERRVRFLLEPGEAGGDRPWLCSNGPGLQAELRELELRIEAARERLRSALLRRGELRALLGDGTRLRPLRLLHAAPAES
T2 sequence (P42260 32-908): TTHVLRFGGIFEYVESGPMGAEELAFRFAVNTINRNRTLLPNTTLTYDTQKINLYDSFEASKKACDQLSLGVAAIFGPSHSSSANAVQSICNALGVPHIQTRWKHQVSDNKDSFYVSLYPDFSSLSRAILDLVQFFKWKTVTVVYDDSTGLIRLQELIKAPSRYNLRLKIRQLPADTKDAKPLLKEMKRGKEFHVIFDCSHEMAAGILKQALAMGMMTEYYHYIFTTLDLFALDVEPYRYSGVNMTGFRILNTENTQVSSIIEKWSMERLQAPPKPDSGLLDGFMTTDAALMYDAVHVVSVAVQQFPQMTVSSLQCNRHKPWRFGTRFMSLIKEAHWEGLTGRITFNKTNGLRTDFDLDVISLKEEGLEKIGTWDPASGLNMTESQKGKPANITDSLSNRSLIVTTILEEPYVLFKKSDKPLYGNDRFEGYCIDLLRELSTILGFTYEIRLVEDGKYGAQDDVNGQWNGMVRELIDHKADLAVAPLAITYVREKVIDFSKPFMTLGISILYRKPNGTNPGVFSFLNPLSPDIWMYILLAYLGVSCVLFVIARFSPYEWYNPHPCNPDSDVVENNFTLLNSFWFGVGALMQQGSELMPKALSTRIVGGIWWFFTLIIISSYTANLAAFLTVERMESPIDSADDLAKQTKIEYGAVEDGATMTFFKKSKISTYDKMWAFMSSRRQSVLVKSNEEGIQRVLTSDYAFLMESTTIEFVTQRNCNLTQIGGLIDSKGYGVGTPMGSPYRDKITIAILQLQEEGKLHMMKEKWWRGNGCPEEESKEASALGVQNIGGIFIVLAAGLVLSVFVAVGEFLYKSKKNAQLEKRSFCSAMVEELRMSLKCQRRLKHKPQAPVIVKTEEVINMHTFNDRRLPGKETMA

COc1ccc(OCC(c2ccc(OC)cc2)N2Cc3ccccc3C2=O)cc1 (racemic) [EU1180-438, 2-(2-(4-methoxyphenoxy)-1-(4-methoxyphenyl)ethyl)isoindolin-1-one]
IC50 [1]: 5.2 µM
inhibition at saturating concentrations [1]: 82%
activity at GluA1-4 AMPA receptors (GluA1-4 AMPA receptors): virtually no activity
time after dosage up to which compound was detected in brain tissue ([2]; male C57BL/6 mice, 20 mg/kg intraperitoneal): up to 8 hours
max concentration in plasma ([2]; male C57BL/6 mice, single intraperitoneal dose of 20 mg/kg): 2.75 µM
concentration at 0.25 h ([2]; male, C57BL/6, mouse, brain, ip, 20 mg/kg, mice, 20 mg/kg intraperitoneal, 0.25 hour, read-out: Brain Concentration): 3680 nM
Kp at 0.25 h ([2]; male, C57BL/6, mouse, brain, ip, 20 mg/kg, mice, 20 mg/kg intraperitoneal, 0.25 hour, read-out: Brain to Plasma Ratio): 1.6
Kp at 0.25 h ([2]; male, C57BL/6, mouse, brain, ip, 20 mg/kg, mice, 20 mg/kg intraperitoneal, 0.25 hour, read-out: Mean Ratio (brain to plasma)): 1.74
concentration at 1 h ([2]; male, C57BL/6, mouse, brain, ip, 20 mg/kg, mice, 20 mg/kg intraperitoneal, 1 hour, read-out: Brain Concentration): 1960 nM
Kp at 1 h ([2]; male, C57BL/6, mouse, brain, ip, 20 mg/kg, mice, 20 mg/kg intraperitoneal, 1 hour, read-out: Brain to Plasma Ratio): 1.57
Kp at 1 h ([2]; male, C57BL/6, mouse, brain, ip, 20 mg/kg, mice, 20 mg/kg intraperitoneal, 1 hour, read-out: Mean Ratio (brain to plasma)): 1.79
concentration at 2 h ([2]; male, C57BL/6, mouse, brain, ip, 20 mg/kg, mice, 20 mg/kg intraperitoneal, 2 hour, read-out: Brain Concentration): 1050 nM
Kp at 2 h ([2]; male, C57BL/6, mouse, brain, ip, 20 mg/kg, mice, 20 mg/kg intraperitoneal, 2 hour, read-out: Mean Ratio (brain to plasma)): 0.88
concentration at 8 h ([2]; male, C57BL/6, mouse, brain, ip, 20 mg/kg, mice, 20 mg/kg intraperitoneal, 8 hour, read-out: Brain Concentration): 60 nM
Kp at 8 h ([2]; male, C57BL/6, mouse, brain, ip, 20 mg/kg, mice, 20 mg/kg intraperitoneal, 8 hour, read-out: Brain to Plasma Ratio): 1.37
Kp at 8 h ([2]; male, C57BL/6, mouse, brain, ip, 20 mg/kg, mice, 20 mg/kg intraperitoneal, 8 hour, read-out: Mean Ratio (brain to plasma)): 1.02
concentration at 0.25 h ([2]; male, C57BL/6, mouse, plasma, ip, 20 mg/kg, mice, 20 mg/kg intraperitoneal, 0.25 hour, read-out: Plasma Concentration): 2300 nM
concentration at 1 h ([2]; male, C57BL/6, mouse, plasma, ip, 20 mg/kg, mice, 20 mg/kg intraperitoneal, 1 hour, read-out: Plasma Concentration): 1250 nM
concentration at 2 h ([2]; male, C57BL/6, mouse, plasma, ip, 20 mg/kg, mice, 20 mg/kg intraperitoneal, 2 hour, read-out: Plasma Concentration): 890 nM
concentration at 8 h ([2]; male, C57BL/6, mouse, plasma, ip, 20 mg/kg, mice, 20 mg/kg intraperitoneal, 8 hour, read-out: Plasma Concentration): 50 nM
Brain to Plasma Ratio [2, 4]: 1.98 and 1.64
Plasma Concentration [2, 4]: 2050 nM and 2210 nM
concentration at 0.25 h ([2]; mice, 20 mg/kg intraperitoneal, 0.25 hour, 20 mg/kg, read-out: Brain Concentration): 4060 nM and 3630 nM
Brain to Plasma Ratio [2, 5]: 1.96 and 1.83
Plasma Concentration [2, 5]: 1040 nM and 1170 nM
concentration at 0.25 h ([2]; mice, 20 mg/kg intraperitoneal, 1 hour, 20 mg/kg, read-out: Brain Concentration): 2040 nM and 2140 nM
Plasma Concentration ([2]; mice, 20 mg/kg intraperitoneal, 2 hour, 20 mg/kg): 920 nM and 960 nM
concentration at 0.25 h ([2]; mice, 20 mg/kg intraperitoneal, 2 hour, 20 mg/kg, read-out: Brain Concentration): 660 nM and 690 nM
Brain to Plasma Ratio [2, 6]: 0.90 and 0.72
Plasma Concentration [2, 6]: 40 nM
concentration at 0.25 h ([2]; mice, 20 mg/kg intraperitoneal, 8 hour, 20 mg/kg, read-out: Brain Concentration): 40 nM and 30 nM
half-life ([2]; mouse, ip, plasma, male C57BL/6 mice, 20 mg/kg intraperitoneal): 1.57 h
activity at GluK2 kainate receptors (GluK2 kainate receptors): virtually no activity
activity at GABA receptors (GABA receptors): virtually no activity
activity toward recombinant GluN1/GluN2 NMDA receptors (GluN2A-D) [3]: no detectable activity
activity at GluN1/GluN2 NMDA receptors ([3]; 20 μM, rat GluN1-1a/GluN2A-D): virtually no activity
